Source: US10385024B2, “Compounds and methods for inhibiting NHE-mediated antiport in the treatment of disorders associated with fluid retention or salt overload and gastrointestinal tract disorders” (Ardelyx, Inc., priority 2012, dated 2019)

What was measured:
human NHE-3 = molecular target: T1, human NHE-3 (Homo sapiens, UniProt P48764); test: Cell-based assay of NHE-3 activity (human NHE3 inhibition assay); conditions: OK cells with human NHE-3 gene, BCECF pH dye, 0-30 μM test compound; for IC50: read-out: Human NHE3 pIC50 (converted)
T1 construct: expressed in transfected cells; host or cells: Opossum kidney (OK) cells (ATCC), transfected by electroporation
T1 sequence (P48764 26-834): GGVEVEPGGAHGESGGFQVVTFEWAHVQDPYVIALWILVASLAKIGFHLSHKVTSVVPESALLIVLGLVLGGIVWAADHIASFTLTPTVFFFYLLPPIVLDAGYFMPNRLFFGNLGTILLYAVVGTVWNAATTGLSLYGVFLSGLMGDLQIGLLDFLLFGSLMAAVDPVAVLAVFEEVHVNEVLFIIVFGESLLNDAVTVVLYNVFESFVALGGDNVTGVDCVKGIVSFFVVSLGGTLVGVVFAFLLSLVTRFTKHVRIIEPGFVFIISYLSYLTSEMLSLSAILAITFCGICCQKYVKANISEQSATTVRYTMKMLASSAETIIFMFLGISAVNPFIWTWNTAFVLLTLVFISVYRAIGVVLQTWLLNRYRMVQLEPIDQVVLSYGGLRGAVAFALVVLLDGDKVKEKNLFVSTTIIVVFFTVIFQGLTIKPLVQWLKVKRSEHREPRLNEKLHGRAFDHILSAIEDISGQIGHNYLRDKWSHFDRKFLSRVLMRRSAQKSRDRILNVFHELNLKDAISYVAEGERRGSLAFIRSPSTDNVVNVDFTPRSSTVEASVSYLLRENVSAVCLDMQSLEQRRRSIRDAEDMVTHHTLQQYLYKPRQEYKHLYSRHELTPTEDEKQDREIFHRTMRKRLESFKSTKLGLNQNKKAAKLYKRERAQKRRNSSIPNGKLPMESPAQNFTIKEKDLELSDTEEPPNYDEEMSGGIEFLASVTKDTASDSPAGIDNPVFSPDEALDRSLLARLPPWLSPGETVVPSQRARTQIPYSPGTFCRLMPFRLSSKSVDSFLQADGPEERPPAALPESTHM
Outline: (§1)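 Opossum kidney cells electroporated with rat or human NHE-3, loaded with 5 μM BCECF-AM in NH4Cl-HEPES pH 7.4 for 30 min at RT, then acidified 10 min in Na+-free choline HEPES. Na+-dependent pH recovery rates from BCECF fluorescence, averaged over ≥2 replicates, gave pIC50.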

Rat NHE-3 [1] = molecular target: T2, Rat NHE-3 (Rattus norvegicus, UniProt P26433); test: Cell-based assay of NHE-3 activity (persistent inhibition, after washout); conditions: OK cells with rat NHE-3 gene, 60 min incubation, recovery initiated 40 min after compound washout; for IC50: read-out: Rat NHE3 pIC50 (persistent) (converted)
T2 construct: expressed in transfected cells; host or cells: Opossum kidney (OK) cells (ATCC), transfected by electroporation
Outline: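 OK cells transiently expressing rat NHE-3 were exposed to 0-30 μM compound in NaCl-HEPES pH 7.4 for 60 min, then washed free of drug before NH4Cl/BCECF-AM loading and acid-loading in Na+-free choline buffer. Na+-dependent pH recovery rates (mean of ≥2 replicates) gave pIC50.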

Rat NHE-3 [2] = molecular target: T2, Rat NHE-3; test: Cell-based assay of NHE-3 activity (rat NHE-3 prompt inhibition); conditions: OK cells with rat NHE-3 gene, compound present during pH recovery; for IC50: read-out: Rat NHE3 pIC50 (prompt) (converted)
Outline: as §1

[3] = tested on: absorption of sodium from the intestinal lumen; test: Inhibition of intestinal sodium absorption (urinary sodium and fecal form); assay type: in vivo, Sprague-Dawley rats; conditions: rat; for response vs control in vivo at 3 mg/kg: 3 mg/kg oral gavage, urine 16 h post-dose, asterisks = significance vs vehicle (*P<0.05, **P<0.01, ***P<0.001), read-out: uNa (% of vehicle)
Outline: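 Sprague-Dawley rats (8 weeks, n=6) dosed by oral gavage with compound or water vehicle (10 mL/kg) in late afternoon, then housed in metabolic cages. Over 16 h, urinary sodium measured by ion chromatography and expressed as % of vehicle mean; fecal form scored 1–5, averaged from two observations.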

T2 sequence (P26433 29-831): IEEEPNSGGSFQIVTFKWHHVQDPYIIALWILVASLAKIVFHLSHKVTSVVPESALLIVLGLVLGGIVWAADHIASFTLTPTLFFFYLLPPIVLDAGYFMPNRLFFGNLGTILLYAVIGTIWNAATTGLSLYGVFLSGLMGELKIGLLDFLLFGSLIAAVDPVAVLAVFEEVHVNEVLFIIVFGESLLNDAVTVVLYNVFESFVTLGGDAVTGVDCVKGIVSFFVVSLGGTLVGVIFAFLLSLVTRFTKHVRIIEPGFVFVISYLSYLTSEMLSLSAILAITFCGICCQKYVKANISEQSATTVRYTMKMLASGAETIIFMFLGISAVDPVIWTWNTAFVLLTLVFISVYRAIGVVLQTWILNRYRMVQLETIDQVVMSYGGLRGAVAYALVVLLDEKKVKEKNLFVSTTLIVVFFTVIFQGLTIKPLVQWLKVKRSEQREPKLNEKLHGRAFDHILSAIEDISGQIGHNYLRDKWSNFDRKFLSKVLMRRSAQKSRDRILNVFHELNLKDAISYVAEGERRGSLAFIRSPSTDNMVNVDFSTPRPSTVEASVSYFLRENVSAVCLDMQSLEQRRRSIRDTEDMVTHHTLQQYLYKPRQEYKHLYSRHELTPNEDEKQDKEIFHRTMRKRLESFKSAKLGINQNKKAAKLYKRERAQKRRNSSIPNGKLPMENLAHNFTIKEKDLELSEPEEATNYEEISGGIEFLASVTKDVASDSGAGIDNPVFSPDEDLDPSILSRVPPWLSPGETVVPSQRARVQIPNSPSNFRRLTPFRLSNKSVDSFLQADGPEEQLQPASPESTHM

Row | Compound | Human NHE3 pIC50 (human NHE-3) | Rat NHE3 pIC50 (persistent) (Rat NHE-3 [1]) | Rat NHE3 pIC50 (prompt) (Rat NHE-3 [2]) | response vs control in vivo at 3 mg/kg [3] [%] | IC50 (human NHE-3) [nM] | IC50 (Rat NHE-3 [1]) [nM] | IC50 (Rat NHE-3 [2]) [nM] | FFS ([3]; fecal form score, scale 1 (normal pellet) to 5 (liquid fecal streams), group average, 3 mg/kg oral, 16 h post-dose, vehicle = 1)
1 | CN1Cc2c(Cl)cc(Cl)cc2[C@H](c2cccc(S(=O)(=O)NCCOCCOCCNC(=O)CCC(CCC(=O)NCCOCCOCCNS(=O)(=O)c3cccc([C@@H]4CN(C)Cc5c(Cl)cc(Cl)cc54)c3)(CCC(=O)NCCOCCOCCNS(=O)(=O)c3cccc([C@@H]4CN(C)Cc5c(Cl)cc(Cl)cc54)c3)NC(=O)N(C)C)c2)C1 [Example 25] | B (B NHE3 pIC50 5-7) | C (C NHE3 pIC50 > 7) | B (B NHE3 pIC50 5-7) | < 35 |  |  |  | 
2 | CN1Cc2c(Cl)cc(Cl)cc2[C@H](c2cccc(S(=O)(=O)NCCOCCOCCNC(=O)NCCC[N+](C)(CCCNC(=O)NCCOCCOCCNS(=O)(=O)c3cccc([C@@H]4CN(C)Cc5c(Cl)cc(Cl)cc54)c3)CCCNC(=O)NCCOCCOCCNS(=O)(=O)c3cccc([C@@H]4CN(C)Cc5c(Cl)cc(Cl)cc54)c3)c2)C1 [Example 58] | C (C NHE3 pIC50 > 7) | C (C NHE3 pIC50 > 7) | C (C NHE3 pIC50 > 7) | 35 to 75 |  |  |  | 
3 | CN(C)CC(=O)NC(CCC(=O)N(C)CCOCCOCCNS(=O)(=O)c1cccc([C@@H]2CN(C)Cc3c(Cl)cc(Cl)cc32)c1)(CCC(=O)N(C)CCOCCOCCNS(=O)(=O)c1cccc([C@@H]2CN(C)Cc3c(Cl)cc(Cl)cc32)c1)CCC(=O)N(C)CCOCCOCCNS(=O)(=O)c1cccc([C@@H]2CN(C)Cc3c(Cl)cc(Cl)cc32)c1 [Example 68] | C (C NHE3 pIC50 > 7) | C (C NHE3 pIC50 > 7) | C (C NHE3 pIC50 > 7) | 35 to 75 |  |  |  | 
4 | CN1Cc2c(Cl)cc(Cl)cc2[C@H](c2cccc(S(=O)(=O)NCCOCCOCCNC(=O)CCC(CCC(=O)NCCOCCOCCNS(=O)(=O)c3cccc([C@@H]4CN(C)Cc5c(Cl)cc(Cl)cc54)c3)(CCC(=O)NCCOCCOCCNS(=O)(=O)c3cccc([C@@H]4CN(C)Cc5c(Cl)cc(Cl)cc54)c3)NC(=O)Cn3ccnc3)c2)C1 [Example 30] | B (B NHE3 pIC50 5-7) | C (C NHE3 pIC50 > 7) | B (B NHE3 pIC50 5-7) | > 75 |  |  |  | 
5 | CC(O)C(NC(=O)NC(CCC(=O)NCCOCCOCCNS(=O)(=O)c1cccc(C2CN(C)Cc3c(Cl)cc(Cl)cc32)c1)(CCC(=O)NCCOCCOCCNS(=O)(=O)c1cccc(C2CN(C)Cc3c(Cl)cc(Cl)cc32)c1)CCC(=O)NCCOCCOCCNS(=O)(=O)c1cccc(C2CN(C)Cc3c(Cl)cc(Cl)cc32)c1)C(N)=O (stereo not shown) [Example 31] | C (C NHE3 pIC50 > 7) | C (C NHE3 pIC50 > 7) | C (C NHE3 pIC50 > 7) | < 35 |  |  |  | 
6 | CN1Cc2c(Cl)cc(Cl)cc2C(c2cccc(S(=O)(=O)NCCOCCOCCNC(=O)CCC(CCC(=O)NCCOCCOCCNS(=O)(=O)c3cccc(C4CN(C)Cc5c(Cl)cc(Cl)cc54)c3)(CCC(=O)NCCOCCOCCNS(=O)(=O)c3cccc(C4CN(C)Cc5c(Cl)cc(Cl)cc54)c3)NC(=O)N(C)CC(O)C(O)C(O)C(O)CO)c2)C1 (stereo not shown) [Example 29] | C (C NHE3 pIC50 > 7) | C (C NHE3 pIC50 > 7) | C (C NHE3 pIC50 > 7) | 35 to 75 |  |  |  | 
7 | CN1Cc2c(Cl)cc(Cl)cc2[C@H](c2cccc(S(=O)(=O)NCCOCCOCCNC(=O)CCC(CCC(=O)NCCOCCOCCNS(=O)(=O)c3cccc([C@@H]4CN(C)Cc5c(Cl)cc(Cl)cc54)c3)(CCC(=O)NCCOCCOCCNS(=O)(=O)c3cccc([C@@H]4CN(C)Cc5c(Cl)cc(Cl)cc54)c3)NS(C)(=O)=O)c2)C1 [Example 5, N^1,N^7-bis(2-(2-(2-(3-((S)-6,8-dichloro-2-methyl-1,2,3,4-tetrahydroisoquinolin-4-yl)phenylsulfonamido)ethoxy)ethoxy)ethyl)-4-(3-(2-(2-(2-(3-((S)-6,8-dichloro-2-methyl-1,2,3,4-tetrahydroisoquinolin-4-yl)phenylsulfonamido)ethoxy)ethoxy)ethylamino)-3-oxopropyl)-4-(methylsulfonamido)heptanediamide] |  |  |  | 35 to 75 | 100 to 10000 | < 100 | 100 to 10000 | 
8 | CC(=O)C(CCC(=O)NCCOCCOCCNS(=O)(=O)c1cccc([C@@H]2CN(C)Cc3c(Cl)cc(Cl)cc32)c1)(CCC(=O)NCCOCCOCCNS(=O)(=O)c1cccc([C@@H]2CN(C)Cc3c(Cl)cc(Cl)cc32)c1)CCC(=O)NCCOCCOCCNS(=O)(=O)c1cccc([C@@H]2CN(C)Cc3c(Cl)cc(Cl)cc32)c1 [Example 72, 4-acetyl-N1,N7-bis(2-(2-(2-(3-((S)-6,8-dichloro-2-methyl-1,2,3,4-tetrahydroisoquinolin-4-yl)phenylsulfonamido)ethoxy)ethoxy)ethyl)-4-(3-(2-(2-(2-(3-((S)-6,8-dichloro-2-methyl-1,2,3,4-tetrahydroisoquinolin-4-yl)phenylsulfonamido)ethoxy)ethoxy)ethylamino)-3-oxopropyl)heptanediamide] |  |  |  | 35 to 75 | 100 to 10000 | < 100 | 100 to 10000 | 
9 | CN1Cc2c(Cl)cc(Cl)cc2[C@H](c2cccc(S(=O)(=O)N(CCO)CCOCCOCCNC(=O)NCCCN(CCCNC(=O)NCCOCCOCCN(CCO)S(=O)(=O)c3cccc([C@@H]4CN(C)Cc5c(Cl)cc(Cl)cc54)c3)CCCNC(=O)NCCOCCOCCN(CCO)S(=O)(=O)c3cccc([C@@H]4CN(C)Cc5c(Cl)cc(Cl)cc54)c3)c2)C1 [Example 56] | C (C NHE3 pIC50 > 7) | C (C NHE3 pIC50 > 7) | C (C NHE3 pIC50 > 7) | 35 to 75 |  |  |  | 
10 | CCC(=O)NC(CCC(=O)NCCOCCOCCOCCNS(=O)(=O)c1cccc([C@@H]2CN(C)Cc3c(Cl)cc(Cl)cc32)c1)(CCC(=O)NCCOCCOCCOCCNS(=O)(=O)c1cccc([C@@H]2CN(C)Cc3c(Cl)cc(Cl)cc32)c1)CCC(=O)NCCOCCOCCOCCNS(=O)(=O)c1cccc([C@@H]2CN(C)Cc3c(Cl)cc(Cl)cc32)c1 [Example 10, 4-(1-(3-((S)-6,8-dichloro-2-methyl-1,2,3,4-tetrahydroisoquinolin-4-yl)phenylsulfonamido)-13-oxo-3,6,9-trioxa-12-azapentadecan-15-yl)-N1,N7-bis(2-(2-(2-(2-(3-((S)-6,8-dichloro-2-methyl-1,2,3,4-tetrahydroisoquinolin-4-yl)phenylsulfonamido)ethoxy)ethoxy)ethoxy)ethyl)-4-propionamidoheptanediamide] |  |  |  | 35 to 75 | < 100 | < 100 | < 100 | 2
11 | CCN(CCOCCOCCNC(=O)NCCCN(CCCNC(=O)NCCOCCOCCN(CC)S(=O)(=O)c1cccc([C@@H]2CN(C)Cc3c(Cl)cc(Cl)cc32)c1)CCCNC(=O)NCCOCCOCCN(CC)S(=O)(=O)c1cccc([C@@H]2CN(C)Cc3c(Cl)cc(Cl)cc32)c1)S(=O)(=O)c1cccc([C@@H]2CN(C)Cc3c(Cl)cc(Cl)cc32)c1 [Example 57] | C (C NHE3 pIC50 > 7) | C (C NHE3 pIC50 > 7) | B (B NHE3 pIC50 5-7) | 35 to 75 |  |  |  | 
12 | CN(CC(=O)O)CC(=O)NC(CCC(=O)NCCOCCOCCNS(=O)(=O)c1cccc([C@@H]2CN(C)Cc3c(Cl)cc(Cl)cc32)c1)(CCC(=O)NCCOCCOCCNS(=O)(=O)c1cccc([C@@H]2CN(C)Cc3c(Cl)cc(Cl)cc32)c1)CCC(=O)NCCOCCOCCNS(=O)(=O)c1cccc([C@@H]2CN(C)Cc3c(Cl)cc(Cl)cc32)c1 [Example 27] | C (C NHE3 pIC50 > 7) | C (C NHE3 pIC50 > 7) | C (C NHE3 pIC50 > 7) | 35 to 75 |  |  |  | 
